Laboratory results published in publication PMC9721426, “Novel piperine-carboximidamide hybrids: design, synthesis, and antiproliferative activity via a multi-targeted inhibitory pathway” (Journal of Enzyme Inhibition and Medicinal Chemistry, 2022).

Assays:
[1] = MTT cell viability assay on normal mammary epithelial cells; assay type: cell-based; conditions: human, MCF-10A mammary epithelial cells, MCF-10A normal cells, 4 days incubation
Description: A human mammary gland epithelial (MCF-10A) normal cell line was used to perform the viability test. The viability of compounds VIa-k was determined using the MTT assay after 4 days of incubation with MCF-10A cells[26]^,[27].
The MTT assay was used to assess how the synthetic compounds impacted the viability of mammary epithelial cells (MCF-10A)[26]^,[27]. Appendix A. […]
4.2. Biological evaluation
4.2.1. Cytotoxic activity using MTT Assay and evaluation of IC50
MTT assay was carried out to study the effect of compounds on mammary epithelial cells (MCF-10A)26,27. The medium in which cells were propagated contained Dulbecco's modified Eagle's medium (DMEM)/ Ham's F-12 medium (1:1) supplemented with epidermal growth factor (20 ng/mL), hydrocortisone (500 ng/mL), insulin (10 μg/mL), 2 mM glutamine and 10% foetal calf serum. After every 2-3 days, the cells were passaged using trypsin ethylenediamine tetra acetic acid (EDTA). The cells were seeded at a density of 10^4 cells mL-1 in flat-bottomed culture plates containing 96 wells each. […]
(§1) A single compound was designated with four wells followed by incubation of plates for 96h at 37°C. After incubation, medium was removed completely from the plates followed by addition of MTT (0.4 mg/mL in medium) to each well and subsequent incubation of plates for 3h. MTT (along with the medium) was removed and DMSO (150μL) was added to each well of the culture plates, followed by vortexing and subsequent measurement of absorbance (at 540 nm) using microplate reader. […]

[2] = system: A-549 (epithelial cancer cell line); assay: Antiproliferative MTT assay, A-549; assay type: cell-based; conditions: Homo sapiens, A549; A-549, MTT; read-out: Antiproliferative activity IC50 ± SEM, A-549
Description: (§2) The MTT assay was performed using various cell lines in accordance with previously reported procedures[28]^,[29] to investigate the antiproliferative potential of VIa-k. Refer to Appendix A. […]
(§3) added (in 200 μL medium to yield a final concentration of 0.1% v/v) to the wells of plates. A single compound was designated with four wells followed by incubation of […]
as §1, with “After” for “A single compound was designated with four wells followed by incubation of plates for 96h at 37°C. After”, “reader. The data are shown as percentage inhibition of proliferation in comparison with controls containing 4.2.1.2. Assay for antiproliferative effect” for “reader.”
(§4) The percentage cytotoxicity of compounds was calculated using the following […]
(§5) Where ATC= Absorbance of treated cells and AC= Absorbance of control. […]
(§6) used as positive control in the assay. […]

[3] = system: MCF-7 (breast cancer cell line); assay: Antiproliferative MTT assay, MCF-7; assay type: cell-based; conditions: Homo sapiens, MCF7; MCF-7, MTT; read-out: Antiproliferative activity IC50 ± SEM, MCF-7
Description: as §2, §3
as §1, with “After” for “A single compound was designated with four wells followed by incubation of plates for 96h at 37°C. After”, “reader. The data are shown as percentage inhibition of proliferation in comparison with controls containing 4.2.1.2. Assay for antiproliferative effect” for “reader.”
as §4, §5, §6

[4] = system: Panc-1 (pancreatic cancer cell line); assay: Antiproliferative MTT assay, Panc-1; assay type: cell-based; conditions: Homo sapiens; Panc-1, MTT; read-out: Antiproliferative activity IC50 ± SEM, Panc-1
Description: as §2, §3
as §1, with “After” for “A single compound was designated with four wells followed by incubation of plates for 96h at 37°C. After”, “reader. The data are shown as percentage inhibition of proliferation in comparison with controls containing 4.2.1.2. Assay for antiproliferative effect” for “reader.”
as §4, §5, §6

[5] = system: HT-29 (colon cancer cell line); assay: Antiproliferative MTT assay, HT-29; assay type: cell-based; conditions: Homo sapiens; HT-29, MTT; read-out: Antiproliferative activity IC50 ± SEM, HT-29
Description: as §2, §3
as §1, with “After” for “A single compound was designated with four wells followed by incubation of plates for 96h at 37°C. After”, “reader. The data are shown as percentage inhibition of proliferation in comparison with controls containing 4.2.1.2. Assay for antiproliferative effect” for “reader.”
as §4, §5, §6

[6] = system: four human cancer cell lines (Panc-1, MCF-7, HT-29, A-549); assay: Antiproliferative MTT assay, average (GI50) over the four cancer cell lines; assay type: cell-based; conditions: for GI50: Homo sapiens, average of IC50 versus A-549, MCF-7, Panc-1, HT-29
Description: The average (GI50) versus the four cancer cell lines was chosen for ease of manipulation.
as §2, §3
as §1, with “After” for “A single compound was designated with four wells followed by incubation of plates for 96h at 37°C. After”, “reader. The data are shown as percentage inhibition of proliferation in comparison with controls containing 4.2.1.2. Assay for antiproliferative effect” for “reader.”
as §4, §5, §6

EGFR = target: T1, EGFR (Homo sapiens, UniProt P00533); assay: EGFR-TK inhibitory assay; assay type: biochemical; conditions: for IC50: EGFR-TK assay, read-out: EGFR inhibition IC50 ± SEM
T1 construct: cytoplasmic domain (EGFR -CD, amino acids 645–1186); His6 (N); made in house; host or cells: Sf-9 insect cells (baculovirus, pBlueBacHis2B / pFASTBacHTc)
Description: 4.2.1.3. EGFR inhibitory assay
EGFR-TK assay was performed to evaluate the inhibitory potency of the tested compounds against EGFR30. Baculoviral expression vectors including pBlueBacHis2B […]
sequence comprised a sequence that encoded (His) 6. Sf-9 cells were infected for 72h for protein expression. The pellets of Sf-9 cells were solubilized in a buffer containing sodium vanadate (100 µM), aprotinin (10 µg/mL), triton (1%), HEPES buffer (50mM), ammonium molybdate (10 µM), benzamidine HCl (16 µg/mL), NaCl (10 mM), leupeptin (10 µg/mL) and pepstatin (10 µg/mL) at 0°C for 20 min at pH 7.4, followed by centrifugation for 20 min. To eliminate the non-specifically bound material, a Ni-NTA super flow packed column was used to pass through and wash the crude extract supernatant first with 10 mM and then with 100 mM imidazole. […]
NaCl (50 mM), HEPES (20 mM), glycerol (10%) and 1 µg/mL each of aprotinin, leupeptin and pepstatin for 120 min. The purification was performed either at 4 °C or on ice. To record autophosphorylation level, EGFR kinase assay was carried out on the basis of DELFIA/Time-Resolved Fluorometry. The compounds were first dissolved in DMSO […]
pH 7.4. Each compound (10 µL) was incubated with recombinant enzyme (10 µL, 5 ng for EGFR, 1:80 dilution in 100 mM HEPES) for 10 min at 25 °C, subsequent to the addition of 5X buffer (10 µL, containing 2 mM MnCl2, 100 µM Na3VO4, 20 mM HEPES and 1 mM DTT) and ATP-MgCl2 (20 µL, containing 0.1 mM ATP and 50 mM MgCl 2) and incubation for 1h. The negative and positive controls were included in each plate by the incuba tion of enzyme either with or without ATP -MgCl2. The liquid was removed after incubation and the plates were washed thrice using wash buffer. Europium -tagged antiphosphotyrosine antibody (75 µL, 400 ng) was added to each well followed by incubation of 1h a nd then washing of the plates using buffer. The enhancement solution was added to each well and the signal was recorded at excitation and emission […]
The autophosphorylation percentage inhibition by compounds was calculated using the following equation: […]
Using the curves of percentage inhibition of eight concentrations of each compound, IC 50

BRAF^V600E = target: T2, BRAF^V600E (Mus musculus, UniProt P28028, V585E); assay: BRAF V600E kinase assay; assay type: biochemical; conditions: read-out: BRAF^V600E inhibition IC50 ± SEM
T2 construct: Mouse full-length GST-tagged BRAFV600E; GST; purchased Invitrogen PV3849
Description: An in vitro study was conducted to evaluate the anti-BRAF^V600E of VIc, VIf, VIg, VIi, and VIk[31]. […] An in vitro study[31] was conducted to evaluate the anti-BRAF^V600E of VIc, VIf, VIg, VIi, and Vik. See Appendix A.
4.2.1.4. BRAF kinase assay
V600E mutant BRAF kinase assay was performed to investigate the activity of the most […]
Mouse full-length GST-tagged BRAFV600E (7.5 ng, Invitrogen, PV3849) was pre-incubated with drug (1 µL) and assay dilution buffer (4 µL) for 60 min at 25 °C. In assay dilution buffer, a solution (5 µL) containing MgCl 2 (30 mM), ATP (200 µM), recombinant human full length (200 ng) […] N-terminal His-tagged MEK1 (Invitrogen) was added to start the assay, subsequent to incubation for 25 min at 25 °C. The assay was stopped using 5X protein denaturing buffer (LDS) solution (5 µL).
To further denature the protein, heat (70° C) was applied for 5 min.
NuPage gel plates (Invitrogen) were used to carry out electrophoresis (at 200 V). 10 µL of each reaction was loaded into the precast plates and electrophoresis was allowed to proceed. After completion of electrophoresis, the front part of the precast gel plate (holding hot ATP) was cut and afterw ards cast-off. The dried gel was developed using a […]
that containing no inhibitor served as positive control. […]

Human CDK2/A2 = Human CDK2/A2 (Homo sapiens, UniProt P24941); assay: CDK2 inhibitory assay
Description: Protein Kinase Assays. Human CDK2/A2 was purchased from New England Biolabs IC50 values for CDK2/A were determined according to the supplier’s instructions

T1 sequence (P00533 669-1210): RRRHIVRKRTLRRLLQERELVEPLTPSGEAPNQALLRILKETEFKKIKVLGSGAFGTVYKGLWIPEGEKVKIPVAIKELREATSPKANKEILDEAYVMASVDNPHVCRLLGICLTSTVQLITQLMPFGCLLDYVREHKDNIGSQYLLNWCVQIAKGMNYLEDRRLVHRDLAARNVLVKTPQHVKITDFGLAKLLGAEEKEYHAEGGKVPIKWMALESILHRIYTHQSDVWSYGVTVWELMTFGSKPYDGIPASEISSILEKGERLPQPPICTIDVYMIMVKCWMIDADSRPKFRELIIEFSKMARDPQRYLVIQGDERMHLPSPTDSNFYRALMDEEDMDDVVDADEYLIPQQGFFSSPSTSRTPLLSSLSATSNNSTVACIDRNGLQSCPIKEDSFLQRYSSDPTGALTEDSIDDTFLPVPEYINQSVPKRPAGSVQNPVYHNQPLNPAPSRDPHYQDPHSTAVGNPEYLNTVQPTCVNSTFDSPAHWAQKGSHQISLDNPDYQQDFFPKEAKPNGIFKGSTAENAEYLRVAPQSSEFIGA
T2 sequence (P28028 whole entry V585E): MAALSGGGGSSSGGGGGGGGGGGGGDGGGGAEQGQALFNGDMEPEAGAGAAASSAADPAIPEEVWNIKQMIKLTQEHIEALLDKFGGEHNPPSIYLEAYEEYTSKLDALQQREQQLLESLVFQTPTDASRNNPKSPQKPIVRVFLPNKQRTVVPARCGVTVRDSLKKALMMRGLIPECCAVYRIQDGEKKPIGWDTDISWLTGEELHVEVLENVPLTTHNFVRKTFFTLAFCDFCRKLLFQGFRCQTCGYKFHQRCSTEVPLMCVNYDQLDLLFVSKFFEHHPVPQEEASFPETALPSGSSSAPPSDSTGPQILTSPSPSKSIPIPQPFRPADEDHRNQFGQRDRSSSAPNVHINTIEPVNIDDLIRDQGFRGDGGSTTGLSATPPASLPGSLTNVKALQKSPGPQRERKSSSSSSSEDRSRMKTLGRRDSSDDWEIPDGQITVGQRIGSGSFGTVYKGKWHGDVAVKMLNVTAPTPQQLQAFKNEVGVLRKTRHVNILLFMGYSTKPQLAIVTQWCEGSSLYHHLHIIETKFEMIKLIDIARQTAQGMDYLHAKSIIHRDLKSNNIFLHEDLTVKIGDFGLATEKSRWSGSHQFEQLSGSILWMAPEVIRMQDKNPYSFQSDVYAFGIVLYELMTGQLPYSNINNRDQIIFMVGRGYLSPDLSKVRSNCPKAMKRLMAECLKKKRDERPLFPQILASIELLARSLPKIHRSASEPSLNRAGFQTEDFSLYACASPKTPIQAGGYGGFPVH

SMILES	IC50 [2] [nM]	IC50 [3] [nM]	IC50 [4] [nM]	IC50 [5] [nM]	GI50 [6] [nM]	melting point [°C]	IC50 (EGFR) [nM]	EGFR potency relative to erlotinib (lower) (EGFR; ratio of IC50 values) [fold]	IC50 (BRAF^V600E) [nM]	IC50 (Human CDK2/A2) [nM]	GI50 potency relative to VIi (less potent) ([6]; ratio of GI50 values) [fold]	viability at 4 days, 50 µM [1] [%]
Cc1ccc(C(N)=NOC(=O)/C=C/C=C/c2ccc3c(c2)OCO3)cc1 [VIe, N'-{[(2E,4E)-5-(2H-1,3-Benzodioxol-5-yl)penta-2,4-dienoyl]oxy}-4-methylbenzene-1-carboximidamide]	69 ± 7	73 ± 7	75 ± 7	75 ± 7	73	185 to 188	–	–	–	–	–	89
NC(=NOC(=O)/C=C/C=C/c1ccc2c(c1)OCO2)c1cccc(Cl)c1 [VIg, N'-{[(2E,4E)-5-(2H-1,3-benzodioxol-5-yl)penta-2,4-dienoyl]oxy}-3-chlorobenzene-1-carboximidamide]	42 ± 5	47 ± 5	49 ± 5	49 ± 5	47	163 to 165	96 ± 6	1.2	63 ± 6	20 ± 2	–	87
COc1ccc(C(N)=NOC(=O)/C=C/C=C/c2ccc3c(c2)OCO3)cc1OC [VIi, N'-{[(2E,4E)-5-(2H-1,3-benzodioxol-5-yl)penta-2,4-dienoyl]oxy}-3,4-dimethoxybenzene-1-carboximidamide]	36 ± 4	39 ± 3	40 ± 4	40 ± 4	39	147 to 149	120 ± 10	–	72 ± 7	17 ± 2	–	89

Second part, led by results:

IC50 [2] [nM]	IC50 [3] [nM]	IC50 [4] [nM]	IC50 [5] [nM]	GI50 [6] [nM]	melting point [°C]	IC50 (EGFR) [nM]	EGFR potency relative to erlotinib (lower) (EGFR; ratio of IC50 values) [fold]	IC50 (BRAF^V600E) [nM]	IC50 (Human CDK2/A2) [nM]	GI50 potency relative to VIi (less potent) ([6]; ratio of GI50 values) [fold]	SMILES	viability at 4 days, 50 µM [1] [%]
61 ± 6	64 ± 6	69 ± 6	67 ± 6	65	141 to 143	–	–	–	–	–	NC(=NOC(=O)/C=C/C=C/c1ccc2c(c1)OCO2)c1cccc(Br)c1 [VIh, N'-{[(2E,4E)-5-(2H-1,3-benzodioxol-5-yl)penta-2,4-dienoyl]oxy}-3-bromobenzene-1-carboximidamide]	91
78 ± 8	81 ± 8	84 ± 8	88 ± 9	83	–	–	–	–	–	2	N/C(=N/OC(=O)/C=C/C=C/c1ccc2c(c1)OCO2)c1cccc2ccccc12 [VIj, N'-{[(2E,4E)-5-(2H-1,3-benzodioxol-5-yl)penta-2,4-dienoyl]oxy} naphthalene-1-carboximidamide]	85
